Assay results: patent US20250170248A1, “SMARCA DEGRADERS AND USES THEREOF” (Kymera Therapeutics, Inc., priority 2021, published 2025)

Columns and labels:
Type in all cases: cell-based
SMARCA2 [1] = target: T1, SMARCA2 (Homo sapiens, UniProt P51531); assay: SMARCA2 Western blot degradation in MV4-11 cells; parameters: SMARCA2/SMARCA4 protein degradation selectivity in MV4-11 cells; endogenous in cells; host or cells: MV4-11; conditions: for Dmax: MV4-11, MV4-11 cells, read-out: SMARCA2 MSD MV411 degradation 24 h: average Dmax %; for DC50: read-out: SMARCA2 MSD MV411 degradation 24 h: Mean external-Abs DC50; for Selectivity in MV411: SMARCA2/4 selectivity
T1 sequence (P51531 whole entry): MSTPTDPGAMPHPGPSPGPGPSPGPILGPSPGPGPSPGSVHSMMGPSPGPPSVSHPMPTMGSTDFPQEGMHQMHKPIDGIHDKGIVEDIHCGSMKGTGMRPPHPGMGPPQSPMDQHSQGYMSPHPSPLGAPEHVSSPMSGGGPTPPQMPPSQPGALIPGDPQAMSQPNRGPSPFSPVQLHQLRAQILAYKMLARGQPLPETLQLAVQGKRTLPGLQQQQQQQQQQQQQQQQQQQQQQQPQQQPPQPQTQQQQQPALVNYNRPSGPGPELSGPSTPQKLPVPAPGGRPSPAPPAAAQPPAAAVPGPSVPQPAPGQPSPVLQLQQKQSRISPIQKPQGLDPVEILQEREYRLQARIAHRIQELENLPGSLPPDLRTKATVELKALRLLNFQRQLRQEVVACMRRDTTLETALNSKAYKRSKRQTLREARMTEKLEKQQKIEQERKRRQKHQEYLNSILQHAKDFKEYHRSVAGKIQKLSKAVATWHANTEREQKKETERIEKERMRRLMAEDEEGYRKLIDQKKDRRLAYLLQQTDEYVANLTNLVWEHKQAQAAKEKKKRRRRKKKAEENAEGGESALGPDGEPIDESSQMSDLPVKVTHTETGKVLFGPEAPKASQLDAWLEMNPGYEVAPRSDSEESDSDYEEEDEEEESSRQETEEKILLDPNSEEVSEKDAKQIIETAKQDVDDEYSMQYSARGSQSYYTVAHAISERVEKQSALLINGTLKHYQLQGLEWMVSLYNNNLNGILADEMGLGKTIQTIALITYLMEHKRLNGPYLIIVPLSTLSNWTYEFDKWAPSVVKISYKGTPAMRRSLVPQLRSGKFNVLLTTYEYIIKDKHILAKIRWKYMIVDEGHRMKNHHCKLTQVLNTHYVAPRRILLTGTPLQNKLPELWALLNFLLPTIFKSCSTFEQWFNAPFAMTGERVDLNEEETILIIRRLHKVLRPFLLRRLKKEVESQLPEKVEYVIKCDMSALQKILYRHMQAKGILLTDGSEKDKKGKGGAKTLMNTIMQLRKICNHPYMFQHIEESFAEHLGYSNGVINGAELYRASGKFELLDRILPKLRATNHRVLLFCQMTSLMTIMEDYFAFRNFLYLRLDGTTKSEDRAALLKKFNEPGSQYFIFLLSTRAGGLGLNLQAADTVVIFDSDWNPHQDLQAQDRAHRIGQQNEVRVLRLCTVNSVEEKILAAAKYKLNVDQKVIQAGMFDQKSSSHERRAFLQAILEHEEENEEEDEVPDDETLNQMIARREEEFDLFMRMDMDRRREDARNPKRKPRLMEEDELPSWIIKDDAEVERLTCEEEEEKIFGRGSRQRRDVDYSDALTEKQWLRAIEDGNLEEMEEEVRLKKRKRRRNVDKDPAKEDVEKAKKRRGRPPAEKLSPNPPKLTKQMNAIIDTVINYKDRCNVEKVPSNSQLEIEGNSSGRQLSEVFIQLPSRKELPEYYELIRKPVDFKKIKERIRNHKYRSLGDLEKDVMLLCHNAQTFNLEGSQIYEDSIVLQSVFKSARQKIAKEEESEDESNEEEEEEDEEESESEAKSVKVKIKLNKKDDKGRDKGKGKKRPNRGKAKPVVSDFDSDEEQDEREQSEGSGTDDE

SMARCA4 = target: T2, SMARCA4 (Homo sapiens, UniProt P51532); assay: SMARCA4 Western blot degradation in MV4-11 cells; conditions: for Dmax: MV4-11, MV4-11 cells, read-out: SMARCA4 MSD MV411 degradation 24 h: average Dmax %; for Dmax / DC50: 24 h; for DC50: read-out: SMARCA4 MSD MV411 degradation 24 h: Mean external-Abs DC50
T2 construct: SMARCA2/SMARCA4 protein degradation selectivity in MV4-11 cells; endogenous in cells; host or cells: MV4-11
T2 sequence (P51532 whole entry): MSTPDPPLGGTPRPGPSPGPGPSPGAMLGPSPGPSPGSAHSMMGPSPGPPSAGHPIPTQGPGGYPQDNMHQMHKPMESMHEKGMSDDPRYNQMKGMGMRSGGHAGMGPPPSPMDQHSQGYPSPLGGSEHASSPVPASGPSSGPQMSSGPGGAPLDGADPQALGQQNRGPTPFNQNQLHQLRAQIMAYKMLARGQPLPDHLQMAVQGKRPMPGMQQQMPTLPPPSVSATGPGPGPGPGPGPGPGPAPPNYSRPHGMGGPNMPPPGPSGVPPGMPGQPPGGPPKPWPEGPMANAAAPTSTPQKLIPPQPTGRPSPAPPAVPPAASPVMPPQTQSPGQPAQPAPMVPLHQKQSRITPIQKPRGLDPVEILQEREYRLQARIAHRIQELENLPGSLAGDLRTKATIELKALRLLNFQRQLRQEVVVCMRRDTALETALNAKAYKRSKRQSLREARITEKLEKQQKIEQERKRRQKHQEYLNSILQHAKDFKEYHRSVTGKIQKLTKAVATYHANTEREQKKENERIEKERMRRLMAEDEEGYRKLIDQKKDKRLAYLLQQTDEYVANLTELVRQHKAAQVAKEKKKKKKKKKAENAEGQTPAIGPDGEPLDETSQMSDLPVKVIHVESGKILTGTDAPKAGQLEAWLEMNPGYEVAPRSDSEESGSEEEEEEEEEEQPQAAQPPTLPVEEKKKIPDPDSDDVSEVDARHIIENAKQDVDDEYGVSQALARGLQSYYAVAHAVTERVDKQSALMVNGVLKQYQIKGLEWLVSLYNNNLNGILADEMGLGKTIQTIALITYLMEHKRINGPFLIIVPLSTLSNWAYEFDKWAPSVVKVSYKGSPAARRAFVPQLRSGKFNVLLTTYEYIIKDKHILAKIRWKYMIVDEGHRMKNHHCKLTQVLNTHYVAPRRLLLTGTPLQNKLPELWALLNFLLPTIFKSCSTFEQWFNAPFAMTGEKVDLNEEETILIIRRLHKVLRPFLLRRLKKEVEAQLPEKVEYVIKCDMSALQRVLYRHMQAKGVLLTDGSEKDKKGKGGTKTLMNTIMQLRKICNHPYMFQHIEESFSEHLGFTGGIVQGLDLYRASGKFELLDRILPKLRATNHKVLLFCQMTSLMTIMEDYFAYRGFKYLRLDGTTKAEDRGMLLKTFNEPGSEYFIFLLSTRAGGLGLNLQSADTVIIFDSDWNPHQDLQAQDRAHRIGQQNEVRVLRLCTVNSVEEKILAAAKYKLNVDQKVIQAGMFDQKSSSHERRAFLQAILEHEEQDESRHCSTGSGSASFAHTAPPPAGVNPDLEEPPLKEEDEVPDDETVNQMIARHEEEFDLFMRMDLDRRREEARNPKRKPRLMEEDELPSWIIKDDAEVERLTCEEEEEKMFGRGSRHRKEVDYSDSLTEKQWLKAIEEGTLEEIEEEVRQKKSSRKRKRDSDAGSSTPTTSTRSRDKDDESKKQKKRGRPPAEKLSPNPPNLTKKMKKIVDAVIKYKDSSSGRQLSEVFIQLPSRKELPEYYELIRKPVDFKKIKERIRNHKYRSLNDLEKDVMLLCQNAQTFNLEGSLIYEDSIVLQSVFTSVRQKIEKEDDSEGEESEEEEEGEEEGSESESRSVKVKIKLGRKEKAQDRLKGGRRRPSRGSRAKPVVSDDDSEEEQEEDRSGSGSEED
Summary of the method: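 Protein levels quantified by LI-COR Western blot (beta-actin loading control) in RIPA lysates of MV4-11 cells after 24 h compound exposure. Degradation reported as DC50, Dmax % at 24 h and SMARCA2 vs SMARCA4 selectivity, each binned into letter codes.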

SMARCA2 [2] = target: T1, SMARCA2; assay: MSD SMARCA2 degradation in A549 cell line; conditions: for Dmax: A549, A549 cells; for Dmax / DC50: 24 h; for DC50: read-out: SMARCA2 MSD A549 degradation 24 h: Average external-Abs DC50
Summary of the method: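 SMARCA2 protein remaining after 24 h exposure of A549 cells (top concentration 1000 nM, 3-fold dilutions) was measured by MSD electrochemiluminescence immunoassay of cell lysates. Results are given as binned DC50 and maximal degradation (Dmax) codes.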

Compound	Dmax (SMARCA2 [1]; 24 h)	DC50 (SMARCA2 [1]; MV4-11 cells, 24 h)	Selectivity in MV411 (SMARCA2 [1]; MV4-11 cells)	Dmax (SMARCA4)	DC50 (SMARCA4; MV4-11 cells)	Dmax (SMARCA2 [2])	DC50 (SMARCA2 [2]; A549 cells)	SMARCA2 MSD MV411 degradation 24 h: average Dmax % (SMARCA2 [1]; MV4-11 cells, 24 h)	SMARCA4 MSD MV411 degradation 24 h: average Dmax % (SMARCA4; MV4-11 cells)	SMARCA2 MSD A549 degradation 24 h: Average Dmax % (SMARCA2 [2]; A549 cells)
C#Cc1ccc(C2(NC(=O)[C@@H]3C[C@@H](O)CN3C(=O)[C@@H](NC(=O)N3CC4(CC(N5CCC(N6CCC(N7CCc8[nH]c9nnc(-c%10ccccc%10O)cc9c8[C@H]7C)CC6)CC5)C4)C3)C(C)(C)C)CC2)cc1 [I-210]	50 to 70%	10 to 100 nM	C (C (10-100 fold))	< 50%	> 100 nM	> 90%	> 100 nM			
C#Cc1ccc(CNC(=O)[C@@H]2C[C@@H](O)CN2C(=O)[C@@H](NC(=O)N2CC3(CC(N4CCC(N5CCC(N6CCN7c8cc(-c9ccccc9O)nnc8NC[C@H]7C6)CC5)CC4)C3)C2)C(C)(C)C)cc1 [I-215]	> 90%	1 to 10 nM	C (C (10-100 fold))	70 to 90%	10 to 100 nM	> 90%	50 to 100 nM			
C#Cc1ccc(CNC(=O)[C@@H]2C[C@@H](O)CN2C(=O)[C@@H](NC(=O)N2CCN(CC3CCN([C@H]4CC[C@@H](N5CCN6c7cc(-c8ccccc8O)nnc7NC[C@H]6C5)CC4)CC3)CC2)C(C)(C)C)cc1 [I-216]	< 50%	> 100 nM	C (C (10-100 fold))	< 50%	> 100 nM	70 to 90%	> 100 nM			
C#Cc1ccc(CNC(=O)[C@@H]2C[C@@H](O)CN2C(=O)[C@@H](NC(=O)N2CCN(CC3CCN([C@H]4CC[C@H](N5CCN6c7cc(-c8ccccc8O)nnc7NC[C@H]6C5)CC4)CC3)CC2)C(C)(C)C)cc1 [I-217]	50 to 70%	10 to 100 nM	C (C (10-100 fold))	< 50%	> 100 nM	70 to 90%	> 100 nM			
C#Cc1ccc(CNC(=O)[C@@H]2C[C@@H](O)CN2C(=O)[C@@H](NC(=O)N2CCO[C@H](CN3CCC(N4CCC(N5CCN6c7cc(-c8ccccc8O)nnc7NC[C@H]6C5)CC4)CC3)C2)C(C)(C)C)cc1 [I-219]	< 50%	> 100 nM	C (C (10-100 fold))	< 50%	> 100 nM	50 to 70%	> 100 nM			

More lines, now with the values ahead:

Dmax (SMARCA2 [1]; 24 h)	DC50 (SMARCA2 [1]; MV4-11 cells, 24 h)	Selectivity in MV411 (SMARCA2 [1]; MV4-11 cells)	Dmax (SMARCA4)	DC50 (SMARCA4; MV4-11 cells)	Dmax (SMARCA2 [2])	DC50 (SMARCA2 [2]; A549 cells)	SMARCA2 MSD MV411 degradation 24 h: average Dmax % (SMARCA2 [1]; MV4-11 cells, 24 h)	SMARCA4 MSD MV411 degradation 24 h: average Dmax % (SMARCA4; MV4-11 cells)	SMARCA2 MSD A549 degradation 24 h: Average Dmax % (SMARCA2 [2]; A549 cells)	Compound
70 to 90%	10 to 100 nM	C (C (10-100 fold))	< 50%	> 100 nM	> 90%	> 100 nM				C#Cc1ccc([C@H](C)NC(=O)[C@@H]2C[C@@H](O)CN2C(=O)[C@@H](NC(=O)N2CC3(CC(N4CCC(N5CCC(N6CCc7[nH]c8nnc(-c9ccccc9O)cc8c7[C@H]6C)CC5)CC4)C3)C2)C(C)(C)C)cc1 [I-212]
70 to 90%	10 to 100 nM	B (B (>100-500 fold))	< 50%	> 100 nM	> 90%	> 100 nM				C#Cc1ccc(CNC(=O)[C@@H]2C[C@@H](O)CN2C(=O)[C@@H](NC(=O)CN2CC3(CC(N4CCC(N5CCC(N6CCN7c8cc(-c9ccccc9O)nnc8NC[C@H]7C6)CC5)CC4)C3)C2)C(C)(C)C)cc1 [I-214, (2S,4R)—N-(4-ethynylbenzyl)-4-hydroxy-1-((S)-2-(2-(6-(4-((S)-2-(2-hydroxyphenyl)-6a,7,9,10-tetrahydro-5H-pyrazino[1′,2′:4,5]pyrazino[2,3-c]pyridazin-8(6H)-yl)-[1,4′-bipiperidin]-1′-yl)-2-azaspiro[3.3]heptan-2-yl)acetamido)-3,3-dimethylbutanoyl)pyrrolidine-2-carboxamide]
< 50%	> 100 nM	C (C (10-100 fold))	< 50%	> 100 nM	50 to 70%	> 100 nM				C#Cc1ccc(CNC(=O)[C@@H]2C[C@@H](O)CN2C(=O)[C@@H](NC(=O)N2CCO[C@@H](CN3CCC(N4CCC(N5CCN6c7cc(-c8ccccc8O)nnc7NC[C@H]6C5)CC4)CC3)C2)C(C)(C)C)cc1 [I-218]
	10 to 100 nM	B (B (>100-500 fold))		> 100 nM		> 100 nM	B (B (>70-90% degradation))	D (D (<50% degradation))	A (A (>90% degradation))	C#Cc1ccc(CNC(=O)[C@@H]2C[C@@H](O)CN2C(=O)[C@@H](NC(=O)[C@H]2CCC3(CC2)C[C@H](N2CCC(N4CCC(N5CCN6c7cc(-c8ccccc8O)nnc7NC[C@H]6C5)CC4)CC2)C3)C(C)(C)C)c(Cl)c1 (stereo partly drawn) [I-222]
